# Test system: Pseudomonas aeruginosa
# Test: Antibacterial activity against blaVIM2-harboring integrons containing Pseudomonas aeruginosa 42 isolate from ventilator-associated pneumonia patient
# Format: functional
row,Compound,Activity
1,NCC[C@H](O)C(=O)N[C@@H]1C[C@H](N)[C@@H](O[C@H]2O[C@H](CN)[C@@H](O)[C@H](O)[C@H]2O)[C@H](O)[C@H]1O[C@H]1O[C@H](CO)[C@@H](O)[C@H](N)[C@H]1O [AMIKACIN],8 µg/mL
2,C[C@H]1[C@H](NC(=O)/C(=N\OC(C)(C)C(=O)O)c2csc(N)n2)C(=O)N1S(=O)(=O)O [AZTREONAM],>256 µg/mL
3,CO/N=C(\C(=O)N[C@@H]1C(=O)N2C(C(=O)[O-])=C(C[N+]3(C)CCCC3)CS[C@H]12)c1csc(N)n1 [CEFEPIME],>256 µg/mL
4,CC(C)(O/N=C(\C(=O)N[C@@H]1C(=O)N2C(C(=O)[O-])=C(C[n+]3ccccc3)CS[C@H]12)c1csc(N)n1)C(=O)O [CEFTAZIDIME],96 µg/mL
5,O=C(O)c1cn(C2CC2)c2cc(N3CCNCC3)c(F)cc2c1=O [CIPROFLOXACIN],>32 µg/mL
6,C[C@@H](O)[C@H]1C(=O)N2C(C(=O)O)=C(SCCNC=N)C[C@H]12 [IMIPENEM ANHYDROUS],>32 µg/mL
7,C[C@@H](O)[C@H]1C(=O)N2C(C(=O)O)=C(S[C@@H]3CN[C@H](C(=O)N(C)C)C3)[C@H](C)[C@H]12 [MEROPENEM],>32 µg/mL
8,CCN1CCN(C(=O)N[C@@H](C(=O)N[C@@H]2C(=O)N3[C@@H]2SC(C)(C)[C@@H]3C(=O)O)c2ccccc2)C(=O)C1=O [PIPERACILLIN],>256 µg/mL
9,COLISTIN,1 µg/mL
